US8173131B2, “Compositions and methods for modulating RSV infection and immunity” (PerkinElmer Health Sciences, Inc., priority 2000, dated 2012)

What was measured:
[1] = test system: human peripheral blood mononuclear cells; experiment: Human PBMC chemotaxis and CX3CR1 expression in modified Boyden chamber; type: cell-based; details: for Chemotactic Indices / CX3CR1 Expression (%) Lower / CX3CR1 Expression (%) Upper: 6 h
Procedure: Leukocyte chemotaxis toward Fkn, G glycoprotein or media was measured according to Boyden^46 using 24 well plates (Costar, Cambridge, Mass.) with 3 μm filter inserts (Nalge Nunc, Rochester, N.Y.) coated with an extracellular matrix consisting primarily of laminin, collagen IV and proteoglycan (ECM, Sigma, St. Louis, Mo.). For murine studies, 5×10^5 naïve spleen cells was placed in the upper chamber and 10 nM mouse Fkn or 10 nM G glycoprotein, anti-CX3CR1 antibody, anti-G or anti-F glycoprotein monoclonal antibody, normal rabbit sera, rabbit anti-CCR5 sera or media was placed in the upper or lower chamber as appropriate. For human studies, 10^6 density gradient purified (Lymphocyte Separation Media, ICN Biomedicals, Aurora, Ohio, per manufacture instructions) peripheral blood mononuclear cells (PBMC) from normal human adult donors was placed in the upper chamber in the presence or absence of 1 μM peptide RT33, and 10 nM human Fkn, 10 nM G glycoprotein or 1 μM peptide RT33 placed in the lower chambers. The modified Boyden chamber was incubated at 37° C. for 4-6 h, the inserts removed, washed in PBS (GIBCO BRL), fixed in 3% gluteraldehyde and stained in formalin-buffered 0.01% crystal violet. Chemotactic cells were visualized with a microscope. Chemotactic cells were analyzed for CX3CR1 expression by collecting cells from the upper or lower modified Boyden chambers, antibody staining (2A9-1) and flow cytometry as described. Leucocytes chemotactic toward G or Fkn expressed a higher percent of CX3CR1 in the lower (25-30%) versus upper chamber (7-11%).
Leukocyte chemotaxis and percent positive CX3CR1 expression on human PBMC after a 6 h chemotaxis assay were determined. The percentage of cells positive for CX3CR1 in both upper and lower modified Boyden chambers are shown. Chemotactic indices were determined from the fold increase of leukocyte migration toward the chemoattractant, i.e. Fkn, G glycoprotein or peptide RT33, over the leukocyte migration toward media alone. TCM=tissue culture media.

[2] = test system: cell trafficking to the lung (BAL cells); experiment: In vivo cell trafficking to the lung of naïve mice after intranasal treatment; design: species or system BALB/c mice; details: for Percentage of cells from BAL determined by flow cytometry: B220 / Percentage of cells from BAL determined by flow cytometry: CD4 / Percentage of cells from BAL determined by flow cytometry: CD8 / Percentage of cells from BAL determined by flow cytometry: CD11b / Percentage of cells from BAL determined by flow cytometry: DX5 / Percentage of cells from BAL determined by flow cytometry: RB6-8C5 / Percentage of cells from BAL determined by H&E stain: Eosinophil / Percentage of cells from BAL determined by H&E stain: Lymphocyte / Percentage of cells from BAL determined by H&E stain: Macrophage / Percentage of cells from BAL determined by H&E stain: PMN: day 2 post-treatment; for Percentage of cells from BAL determined by flow cytometry: B220 / Percentage of cells from BAL determined by flow cytometry: CD4 / Percentage of cells from BAL determined by flow cytometry: CD8: lymphocyte gate; for Percentage of cells from BAL determined by flow cytometry: CD11b / Percentage of cells from BAL determined by flow cytometry: DX5 / Percentage of cells from BAL determined by flow cytometry: RB6-8C5: ungated events; for Percentage of cells from BAL determined by H&E stain: Eosinophil / Percentage of cells from BAL determined by H&E stain: Lymphocyte / Percentage of cells from BAL determined by H&E stain: Macrophage / Percentage of cells from BAL determined by H&E stain: PMN / mean BAL cell numbers (±SEM) recovered: naïve BALB/c mice; for Percentage of cells from BAL determined by H&E stain: Eosinophil / Percentage of cells from BAL determined by H&E stain: Lymphocyte / Percentage of cells from BAL determined by H&E stain: Macrophage / Percentage of cells from BAL determined by H&E stain: PMN: i.n. 1 μM, median ± SE; for mean BAL cell numbers (±SEM) recovered: intranasal 1 μM, 48 hours post-treatment
Procedure: FIG. 5A is a bar graph showing leukocyte chemotaxis toward G glycoprotein or fractalkine (Fkn) in the presence or absence of anti-CX3CR1 antibody or normal rabbit sera. The chemotactic index determined from the fold increase of murine leukocyte migration toward the chemoattractant (e.g., Fkn or G glycoprotein) over the leukocyte migration toward the media alone control using modified Boyden chambers. Fkn, G glycoprotein, […] (10 μg) or normal rabbit sera (10 μg) was added to the upper chamber to examine antagonism of cell migration toward the chemoattractant in the lower chamber. FIG. 5B is a bar graph showing cell trafficking to the lung of naïve BALB/c mice intranasally treated with G glycoprotein, fractalkine or G glycoprotein peptides RT32, RT33 or RT34. BAL cells were fixed and stained with H&E. Cell subsets were determined as a percentage of the total BAL cells counted from >200 cells/slide counting two slides for each experiment. The percent cell type represents the median±SE from three separate experiments. * indicates significant difference compared to tissue culture media alone (p<0.05). Naïve BALB/c mice were i.n. treated with 1 μM G glycoprotein or fractalkine or with 1 μM G glycoprotein peptides. The BAL was collected 2 days post-treatment for analysis.
Cell trafficking to the lung in naïve and FI-RSV-immune BALB/c mice was examined following intranasal treatment with either 1 μM fractalkine, RSV G glycoprotein or RSV G peptides. All mice were females purchased from Harlan Sprague Dawley (Indianapolis, Ind.) and maintained at the Centers for Disease Control and Prevention in Atlanta, Ga. FI-RSV-immune mice were immunized in the superficial gluteal muscle using 10^6 pfu equivalents of FI-RSV in accordance with methods known to those skilled in the art. Mice were anesthetized with 2,2,2,-tribromoethanol and intranasally treated with 0.05 ml of either fractalkine, RSV G glycoprotein or peptide diluted in PBS (GIBCO). At day two post-treatment, the mice were anesthetized, exsanguinated by severing the right caudal artery, and the bronchoalveolar (BAL) cells collected in PBS containing 1% BSA (Sigma). BAL cells were blocked with 10% normal mouse sera (Jackson Laboratories, Bar Harbor, Me.) in PBS, and then stained with the appropriate combinations of FITC- or PE-labeled anti-CD3 (145-2C11), anti-CD4 (GK1.5), anti-CD8 (53-6.7), anti-CD11b (M1/70), anti-CD45R/B220 (RA3-6B2), anti-pan NK cell (DX5), anti-neutrophil (RB6-8C5), and mouse isotype Ab controls (all from PharMingen, San Diego, Calif.). The distribution of cell surface markers was determined in two-color mode on a FACScan with CellQUEST software (Becton-Dickinson, Mountain View, Calif.).

[3] = TCM in upper chamber, substance in lower chamber (10 nM G or Fkn, 1 μM RT33)
[4] = TCM in upper chamber, substance in lower chamber
[5] = 1 μM RT33 in upper chamber, Fkn in lower chamber
[6] = 1 μM RT33 in upper chamber, G glycoprotein in lower chamber

Fkn: CX3C chemokine fractalkine (R&D), ligand of CX3CR1 [reference compound]
Chemotactic Indices [1, 3]: 3.2-3.7
CX3CR1 Expression (%) Lower [1, 4]: 26-30%
CX3CR1 Expression (%) Upper [1, 4]: 7-8%
Percentage of cells from BAL determined by flow cytometry: B220 [2]: 6 ± 2%
Percentage of cells from BAL determined by flow cytometry: CD4 [2]: 16 ± 4%
Percentage of cells from BAL determined by flow cytometry: CD8 [2]: 6 ± 2%
Percentage of cells from BAL determined by flow cytometry: CD11b [2]: 12 ± 4%
Percentage of cells from BAL determined by flow cytometry: DX5 [2]: 17 ± 8%
Percentage of cells from BAL determined by flow cytometry: RB6-8C5 [2]: 10 ± 6%
Percentage of cells from BAL determined by H&E stain: Eosinophil [2]: 0 ± 0%
Percentage of cells from BAL determined by H&E stain: Lymphocyte [2]: 10 ± 3%
Percentage of cells from BAL determined by H&E stain: Macrophage [2]: 71 ± 10%
Percentage of cells from BAL determined by H&E stain: PMN [2]: 16 ± 5%
mean BAL cell numbers (±SEM) recovered [2]: 3.8 (±0.6) ×10^5 cells/ml

NKKPGKKTTTKP [RT34]
Percentage of cells from BAL determined by flow cytometry: B220 [2]: 4 ± 2%
Percentage of cells from BAL determined by flow cytometry: CD4 [2]: 6 ± 2%
Percentage of cells from BAL determined by flow cytometry: CD8 [2]: 3 ± 3%
Percentage of cells from BAL determined by flow cytometry: CD11b [2]: 3 ± 1%
Percentage of cells from BAL determined by flow cytometry: DX5 [2]: 6 ± 2%
Percentage of cells from BAL determined by flow cytometry: RB6-8C5 [2]: 6 ± 4%
Percentage of cells from BAL determined by H&E stain: Eosinophil [2]: 0 ± 0%
Percentage of cells from BAL determined by H&E stain: Lymphocyte [2]: 8 ± 2%
Percentage of cells from BAL determined by H&E stain: Macrophage [2]: 86 ± 8%
Percentage of cells from BAL determined by H&E stain: PMN [2]: 8 ± 3%
mean BAL cell numbers (±SEM) recovered [2]: 2.8 (±0.2) ×10^5 cells/ml

TCWAICKRIPNK [RT33]
CX3CR1 Expression (%) Lower [1, 5]: 6-14%
CX3CR1 Expression (%) Upper [1, 5]: 16-21%
Chemotactic Indices [1, 5]: 1.8-2.2
CX3CR1 Expression (%) Lower [1, 6]: 9-14%
CX3CR1 Expression (%) Upper [1, 6]: 16-18%
Chemotactic Indices [1, 6]: 1.5-2.0
Chemotactic Indices [1, 3]: 1.6-2.2
CX3CR1 Expression (%) Lower [1, 4]: 16-18%
CX3CR1 Expression (%) Upper [1, 4]: 11-16%
effect on chemotaxis toward G glycoprotein and Fkn ([1]; peptide added to upper Boyden chamber, in words): reduced chemotaxis toward both G glycoprotein and Fkn
Percentage of cells from BAL determined by flow cytometry: B220 [2]: 4 ± 2%
Percentage of cells from BAL determined by flow cytometry: CD4 [2]: 10 ± 2%
Percentage of cells from BAL determined by flow cytometry: CD8 [2]: 4 ± 2%
Percentage of cells from BAL determined by flow cytometry: CD11b [2]: 10 ± 4%
Percentage of cells from BAL determined by flow cytometry: DX5 [2]: 10 ± 2%
Percentage of cells from BAL determined by flow cytometry: RB6-8C5 [2]: 12 ± 2%
Percentage of cells from BAL determined by H&E stain: Eosinophil [2]: 0 ± 0%
Percentage of cells from BAL determined by H&E stain: Lymphocyte [2]: 4 ± 2%
Percentage of cells from BAL determined by H&E stain: Macrophage [2]: 76 ± 8%
Percentage of cells from BAL determined by H&E stain: PMN [2]: 16 ± 6%
mean BAL cell numbers (±SEM) recovered [2]: 3.5 (±0.3) ×10^5 cells/ml

VPCSICSNNPTC [RT32]
Percentage of cells from BAL determined by flow cytometry: B220 [2]: 3 ± 2%
Percentage of cells from BAL determined by flow cytometry: CD4 [2]: 2 ± 2%
Percentage of cells from BAL determined by flow cytometry: CD8 [2]: 2 ± 2%
Percentage of cells from BAL determined by flow cytometry: CD11b [2]: 3 ± 2%
Percentage of cells from BAL determined by flow cytometry: DX5 [2]: 2 ± 1%
Percentage of cells from BAL determined by flow cytometry: RB6-8C5 [2]: 2 ± 2%
Percentage of cells from BAL determined by H&E stain: Eosinophil [2]: 0 ± 0%
Percentage of cells from BAL determined by H&E stain: Lymphocyte [2]: 12 ± 4%
Percentage of cells from BAL determined by H&E stain: Macrophage [2]: 94 ± 5%
Percentage of cells from BAL determined by H&E stain: PMN [2]: 2 ± 2%
mean BAL cell numbers (±SEM) recovered [2]: 2.2 (±0.5) ×10^5 cells/ml

B1: G glycoprotein: purified G glycoprotein isolated from RSV/A2-infected Vero cells (protein)
chain: MSKNKDQRTAKTLERTWDTLNHLLFISSCLYKLNLKSVAQITLSILAMIISTSLIIAAIIFIASANHKVTPTTAIIQDATSQIKNTTPTYLTQNPQLGISPSNPSEITSQITTILASTTPGVKSTLQSTTVKTKNTTTTQTQPSKPTTKQRQNKPPSKPNNDFHFEVFNFVPCSICSNNPTCWAICKRIPNKKPGKKTTTKPTKKPTLKTTKKDPKPQTTKSKEVPTTKPTEEPTINTTKTNIITTLLTSNTTGNPELTSQMETFHSTSSEGNPSPSQVSTTSEYPSQPSSPPNTPRQ
Chemotactic Indices [1, 3]: 3.0-3.6
CX3CR1 Expression (%) Lower [1, 4]: 25-30%
CX3CR1 Expression (%) Upper [1, 4]: 8-11%
Percentage of cells from BAL determined by flow cytometry: B220 [2]: 5 ± 4%
Percentage of cells from BAL determined by flow cytometry: CD4 [2]: 8 ± 2%
Percentage of cells from BAL determined by flow cytometry: CD8 [2]: 4 ± 3%
Percentage of cells from BAL determined by flow cytometry: CD11b [2]: 12 ± 5%
Percentage of cells from BAL determined by flow cytometry: DX5 [2]: 9 ± 6%
Percentage of cells from BAL determined by flow cytometry: RB6-8C5 [2]: 10 ± 4%
Percentage of cells from BAL determined by H&E stain: Eosinophil [2]: 0 ± 0%
Percentage of cells from BAL determined by H&E stain: Lymphocyte [2]: 10 ± 3%
Percentage of cells from BAL determined by H&E stain: Macrophage [2]: 68 ± 10%
Percentage of cells from BAL determined by H&E stain: PMN [2]: 22 ± 4%
mean BAL cell numbers (±SEM) recovered [2]: 4.6 (±1.1) ×10^5 cells/ml
